Reference: US7223888B2, “Mu opioid receptor ligands: methods of use and synthesis” (President and Fellows of Harvard College, priority 2002, dated 2007)
Where two headings read alike, the source gives them in different places.

Experiments:
hMOR-1 = molecular target: T1, hMOR-1 (Homo sapiens, UniProt P35372); test: Opioid receptor competitive binding assay, MOR (3H-DAMGO)
T1 construct: purchased Amersham Biosciences; host or cells: stably transfected CHO cells (membrane preparation)
Experimental: (§1) For selected compounds, Ki for MOR, DOR, and KOR were determined according to the following procedure: Recombinant hMOR-1 membrane preps from stably transfected CHO cells and recombinant hDOR-1 membrane preps from stably transfected HEK-293 cells were purchased from Amersham Biosciences. Guinea pig cerebellum preparations were used for KOR assays.
(§2) Each microassay from an assay plate was filtered through an individual well of a Packard GF/B 96-well filter plate (glass fiber filter) to collect the membranes. Each well was washed twice with 200 μL of ice cold wash buffer (50 mM Tris, pH 7.4). The filter plate was allowed to dry overnight, the back was sealed, and Packard Bioscience Microscint PS scintillation fluid (75 μL) was added to each well, which was then counted for ^3H for 2 minutes using a Packard Bioscience TopCount scintillation counter plate reader.
(§3) Each compound was assayed at 8 concentrations, using half-log serial dilutions. Each concentration was tested in triplicate, and the ^3H cpm were averaged.
(§4) This concentration was determined experimentally by scintillation counting an aliquot of the radioligand stock solution used in the assay.
(§5) Kd=the binding constant for the radioligand.
(§6) This triplicate experiment was repeated three times for the MOR and twice for the DOR and the KOR.

hDOR-1 = molecular target: T2, hDOR-1 (Homo sapiens, UniProt P41143); test: Opioid receptor competitive binding assay, DOR; conditions: for Ki DOR/Ki MOR: Table 12, selectivity for MOR versus DOR (3H-DPDPE, hDOR-1)
T2 construct: purchased Amersham Biosciences; host or cells: stably transfected HEK-293 cells (membrane preparation)
Experimental: as §1, §2, §3, §4, §5, §6

KOR = molecular target: T3, KOR (Cavia porcellus, UniProt P41144); test: Opioid receptor competitive binding assay, KOR (3H-U-69,593); design: species or system guinea pig; conditions: for Ki KOR/Ki MOR: Table 12, selectivity for MOR versus KOR
T3 construct: from tissue; host or cells: guinea pig cerebellum preparation
Experimental: as §1, §2, §3, §6

[1] = Ki MOR, Table 3, 3H-DAMGO, hMOR-1 stably transfected into CHO cells, errors 95% confidence interval
[2] = Ki DOR, Table 6, footnote:, hDOR-1 stably transfected into HEK-293 cells, errors two standard deviations
[3] = Ki KOR, Table 9, 3H-U-69,593, guinea pig cerebellum preps, errors two standard deviations

`NC(=O)C(Cc1ccccc1)NC(=O)C(Cc1ccccc1)C(O)/C=C/CC(O)C(N)Cc1ccc(O)cc1` (single isomer, unassigned) [(S,R,R,R)-2, (E)-8-Amino-2-benzyl-3,7-dihydroxy-9-(4-hydroxy-phenyl)-non-4-enoic acid (1-carbamoyl-2-phenyl-ethyl)-amide] was tested, and the Ki (hMOR-1; [1]) was 67 ± 38 nM, the Ki (hDOR-1; [2]) was 1400 ± 300 nM and the “Ki DOR/Ki MOR” value (hDOR-1) was 21. The Ki (KOR; [3]) was 1200 ± 100 nM and the “Ki KOR/Ki MOR” value (KOR) was 18.

For `NC(=O)C(Cc1ccccc1)NC(=O)C(Cc1ccccc1)C(O)CCCC(O)C(N)Cc1ccc(O)cc1` (single isomer, unassigned) [(S,R,R,R)-6, 8-Amino-2-benzyl-3,7-dihydroxy-9-(4-hydroxy-phenyl)-nonanoic acid (1-carbamoyl-2-phenyl-ethyl)-amide], the Ki (hMOR-1; read-out: Ki MOR) was 120 ± 30 nM and the Ki (KOR; read-out: Ki KOR) was 1500 ± 700 nM.

`NC(=O)C(Cc1ccccc1)NC(=O)C(Cc1ccccc1)C(O)/C=C\CC(O)C(N)Cc1ccc(O)cc1` (single isomer, unassigned) [(S,R,R,R)-9, (Z)-8-Amino-2-benzyl-3,7-dihydroxy-9-(4-hydroxy-phenyl)-non-4-enoic acid (1-carbamoyl-2-phenyl-ethyl)-amide] was tested, and the Ki (hMOR-1; [1]) was 400 ± 110 nM, the Ki (hDOR-1; [2]) was 9200 ± 2100 nM and the “Ki DOR/Ki MOR” value (hDOR-1) was 23. For the same compound, the Ki (KOR; [3]) was 5800 ± 1800 nM and the “Ki KOR/Ki MOR” value (KOR) was 15.

With `NC(Cc1ccc(O)cc1)C(O)C/C=C/C(O)C(Cc1ccccc1)C(=O)NCCc1ccccc1` (single isomer, unassigned) [(S,R,R,R)-10, (E)-8-Amino-2-benzyl-3,7-dihydroxy-9-(4-hydroxy-phenyl)-non-4-enoic acid phenethyl-amide] the Ki (hMOR-1; [1]) was 53 ± 6 nM, the Ki (hDOR-1; [2]) was 2900 ± 600 nM and the “Ki DOR/Ki MOR” value (hDOR-1) was 55. For the same compound, the Ki (KOR; [3]) was 2800 ± 600 nM and the “Ki KOR/Ki MOR” value (KOR) was 53.

In the case of `NC(Cc1ccc(O)cc1)C(O)C/C=C/C(O)C(Cc1ccccc1)C(=O)NC(CO)Cc1ccccc1` (single isomer, unassigned) [(S,R,R,R)-11, (E)-8-Amino-2-benzyl-3,7-dihydroxy-9-(4-hydroxy-phenyl)-non-4-enoic acid (1-hydroxymethyl-2-phenyl-ethyl)-amide], the Ki (hMOR-1; [1]) is reported as 28 ± 5 nM, the Ki (hDOR-1; [2]) is reported as 960 ± 100 nM and the “Ki DOR/Ki MOR” value (hDOR-1) is reported as 34. The Ki (KOR; [3]) was 3400 ± 1300 nM and the “Ki KOR/Ki MOR” value (KOR) was 120.

`C=CC(O)C(Cc1ccccc1)NC(=O)C(Cc1ccccc1)C(O)/C=C/CC(O)C(N)Cc1ccc(O)cc1` (single isomer, unassigned) [(S,R,R,R)-12, (E)-8-Amino-2-benzyl-3,7-dihydroxy-9-(4-hydroxy-phenyl)-non-4-enoic acid (1-benzyl-2-hydroxy-but-3-enyl)-amide] was tested, and the Ki (hMOR-1; [1]) was 37 ± 1 nM, the Ki (hDOR-1; [2]) was 570 ± 280 nM and the “Ki DOR/Ki MOR” value (hDOR-1) was 15. For the same compound, the Ki (KOR; [3]) was 970 ± 80 nM and the “Ki KOR/Ki MOR” value (KOR) was 26.

With `NC(=O)C(Cc1ccccc1)NC(=O)C(Cc1ccccc1)C(O)/C=C/CC(O)C(N)Cc1ccc(O)cc1` (single isomer, unassigned) [(S,R,S,R)-2, (E)-8-Amino-2-benzyl-3,7-dihydroxy-9-(4-hydroxy-phenyl)-non-4-enoic acid (1-carbamoyl-2-phenyl-ethyl)-amide] the Ki (hMOR-1; [1]) was 160 ± 40 nM, the Ki (hDOR-1; [2]) was 850 ± 30 nM and the “Ki DOR/Ki MOR” value (hDOR-1) was 5. The Ki (KOR; [3]) was 2900 ± 800 nM and the “Ki KOR/Ki MOR” value (KOR) was 18.

With `NC(=O)C(Cc1ccccc1)NC(=O)C(Cc1ccccc1)C(O)CCCC(O)C(N)Cc1ccc(O)cc1` (single isomer, unassigned) [(S,R,S,R)-6, 8-Amino-2-benzyl-3,7-dihydroxy-9-(4-hydroxy-phenyl)-nonanoic acid (1-carbamoyl-2-phenyl-ethyl)-amide] the Ki (hMOR-1; read-out: Ki MOR) was 190 ± 20 nM, the Ki (hDOR-1; read-out: Ki DOR) was 4000 ± 100 nM and the Ki (KOR; read-out: Ki KOR) was 6600 ± 3500 nM.

For `NC(=O)C(Cc1ccccc1)NC(=O)C(Cc1ccccc1)C(O)/C=C\CC(O)C(N)Cc1ccc(O)cc1` (single isomer, unassigned) [(S,R,S,R)-9, (Z)-8-Amino-2-benzyl-3,7-dihydroxy-9-(4-hydroxy-phenyl)-non-4-enoic acid (1-carbamoyl-2-phenyl-ethyl)-amide], the Ki (hMOR-1; [1]) was 260 ± 70 nM, the Ki (hDOR-1; [2]) was 10000 ± 2000 nM and the “Ki DOR/Ki MOR” value (hDOR-1) was 39. For the same compound, the Ki (KOR; [3]) was 1700 ± 400 nM and the “Ki KOR/Ki MOR” value (KOR) was 7.

For `NC(=O)C(Cc1ccccc1)NC(=O)C(Cc1ccccc1)C(O)/C=C/CC(O)C(N)Cc1ccc(O)cc1` (single isomer, unassigned) [(S,S,R,R)-2, (E)-8-Amino-2-benzyl-3,7-dihydroxy-9-(4-hydroxy-phenyl)-non-4-enoic acid (1-carbamoyl-2-phenyl-ethyl)-amide], the Ki (hMOR-1; [1]) was 25 ± 5 nM, the Ki (hDOR-1; [2]) was 1200 ± 100 nM and the “Ki DOR/Ki MOR” value (hDOR-1) was 45. The Ki (KOR; [3]) was 1200 ± 700 nM and the “Ki KOR/Ki MOR” value (KOR) was 48.

Work on `NC(=O)C(Cc1ccccc1)NC(=O)C(Cc1ccccc1)C(O)CCCC(O)C(N)Cc1ccc(O)cc1` (single isomer, unassigned) [(S,S,R,R)-6, 8-Amino-2-benzyl-3,7-dihydroxy-9-(4-hydroxy-phenyl)-nonanoic acid (1-carbamoyl-2-phenyl-ethyl)-amide] yielded a Ki (hMOR-1; [1]) of 95 ± 61 nM, a Ki (hDOR-1; read-out: Ki DOR) of 3000 ± 100 nM and a Ki (KOR; read-out: Ki KOR) of 730 ± 270 nM.

In the case of `NC(=O)C(Cc1ccccc1)NC(=O)C(Cc1ccccc1)C(O)/C=C\CC(O)C(N)Cc1ccc(O)cc1` (single isomer, unassigned) [(S,S,R,R)-9, (Z)-8-Amino-2-benzyl-3,7-dihydroxy-9-(4-hydroxy-phenyl)-non-4-enoic acid (1-carbamoyl-2-phenyl-ethyl)-amide], the Ki (hMOR-1; [1]) is reported as 74 ± 12 nM, the Ki (hDOR-1; [2]) is reported as 4300 ± 1400 nM and the “Ki DOR/Ki MOR” value (hDOR-1) is reported as 58. For the same compound, the Ki (KOR; [3]) was 1600 ± 100 nM and the “Ki KOR/Ki MOR” value (KOR) was 22.

For `NC(Cc1ccc(O)cc1)C(O)C/C=C/C(O)C(Cc1ccccc1)C(=O)NCCc1ccccc1` (single isomer, unassigned) [(S,S,R,R)-10, (E)-8-Amino-2-benzyl-3,7-dihydroxy-9-(4-hydroxy-phenyl)-non-4-enoic acid phenethyl-amide], the Ki (hMOR-1; [1]) was 29 ± 8 nM, the Ki (hDOR-1; [2]) was 1200 ± 300 nM and the “Ki DOR/Ki MOR” value (hDOR-1) was 42. The Ki (KOR; [3]) was 3400 ± 300 nM and the “Ki KOR/Ki MOR” value (KOR) was 120.

In the case of `NC(Cc1ccc(O)cc1)C(O)C/C=C/C(O)C(Cc1ccccc1)C(=O)NC(CO)Cc1ccccc1` (single isomer, unassigned) [(S,S,R,R)-11, (E)-8-Amino-2-benzyl-3,7-dihydroxy-9-(4-hydroxy-phenyl)-non-4-enoic acid (1-hydroxymethyl-2-phenyl-ethyl)-amide], the Ki (hMOR-1; [1]) is reported as 16 ± 1 nM, the Ki (hDOR-1; [2]) is reported as 620 ± 80 nM and the “Ki DOR/Ki MOR” value (hDOR-1) is reported as 39. The Ki (KOR; [3]) was 2900 ± 400 nM and the “Ki KOR/Ki MOR” value (KOR) was 180.

In the case of `C=CC(O)C(Cc1ccccc1)NC(=O)C(Cc1ccccc1)C(O)/C=C/CC(O)C(N)Cc1ccc(O)cc1` (single isomer, unassigned) [(S,S,R,R)-12, (E)-8-Amino-2-benzyl-3,7-dihydroxy-9-(4-hydroxy-phenyl)-non-4-enoic acid (1-benzyl-2-hydroxy-but-3-enyl)-amide], the Ki (hMOR-1; [1]) is reported as 22 ± 4 nM, the Ki (hDOR-1; [2]) is reported as 620 ± 70 nM and the “Ki DOR/Ki MOR” value (hDOR-1) is reported as 28. For the same compound, the Ki (KOR; [3]) was 770 ± 130 nM and the “Ki KOR/Ki MOR” value (KOR) was 35.

`NC(=O)C(Cc1ccccc1)NC(=O)C(Cc1ccccc1)C(O)/C=C/CC(O)C(N)Cc1ccc(O)cc1` (single isomer, unassigned) [(S,S,R,S)-2, (E)-8-Amino-2-benzyl-3,7-dihydroxy-9-(4-hydroxy-phenyl)-non-4-enoic acid (1-carbamoyl-2-phenyl-ethyl)-amide] was tested, and the Ki (hMOR-1; [1]) was 79 ± 23 nM, the Ki (hDOR-1; [2]) was 6900 ± 1300 nM and the “Ki DOR/Ki MOR” value (hDOR-1) was 86. For the same compound, the Ki (KOR; [3]) was 1300 ± 100 nM and the “Ki KOR/Ki MOR” value (KOR) was 16.

For `NC(=O)C(Cc1ccccc1)NC(=O)C(Cc1ccccc1)C(O)/C=C/CC(O)C(N)Cc1ccc(O)cc1` (single isomer, unassigned) [(S,S,S,R)-2, (E)-8-Amino-2-benzyl-3,7-dihydroxy-9-(4-hydroxy-phenyl)-non-4-enoic acid (1-carbamoyl-2-phenyl-ethyl)-amide], the Ki (hMOR-1; [1]) was 8.8 ± 0.7 nM, the Ki (hDOR-1; [2]) was 510 ± 10 nM and the “Ki DOR/Ki MOR” value (hDOR-1) was 57. The Ki (KOR; [3]) was 1300 ± 500 nM and the “Ki KOR/Ki MOR” value (KOR) was 150.

`NC(=O)C(Cc1ccccc1)NC(=O)C(Cc1ccccc1)C(O)CCCC(O)C(N)Cc1ccc(O)cc1` (single isomer, unassigned) [(S,S,S,R)-6, 8-Amino-2-benzyl-3,7-dihydroxy-9-(4-hydroxy-phenyl)-nonanoic acid (1-carbamoyl-2-phenyl-ethyl)-amide] gave a Ki (hMOR-1; [1]) of 98 ± 31 nM and a Ki (KOR; read-out: Ki KOR) of 3900 ± 1700 nM.

With `NC(=O)C(Cc1ccccc1)NC(=O)C(Cc1ccccc1)C(O)/C=C\CC(O)C(N)Cc1ccc(O)cc1` (single isomer, unassigned) [(S,S,S,R)-9, (Z)-8-Amino-2-benzyl-3,7-dihydroxy-9-(4-hydroxy-phenyl)-non-4-enoic acid (1-carbamoyl-2-phenyl-ethyl)-amide] the Ki (hMOR-1; [1]) was 370 ± 150 nM, the Ki (hDOR-1; [2]) was 2200 ± 100 nM and the “Ki DOR/Ki MOR” value (hDOR-1) was 6. For the same compound, the Ki (KOR; [3]) was 6100 ± 3000 nM and the “Ki KOR/Ki MOR” value (KOR) was 16.

In the case of `NC(Cc1ccc(O)cc1)C(O)C/C=C/C(O)C(Cc1ccccc1)C(=O)NCCc1ccccc1` (single isomer, unassigned) [(S,S,S,R)-10, (E)-8-Amino-2-benzyl-3,7-dihydroxy-9-(4-hydroxy-phenyl)-non-4-enoic acid phenethyl-amide], the Ki (hMOR-1; [1]) is reported as 21 ± 1 nM, the Ki (hDOR-1; [2]) is reported as 3600 ± 100 nM and the “Ki DOR/Ki MOR” value (hDOR-1) is reported as 170. For the same compound, the Ki (KOR; [3]) was 1800 ± 300 nM and the “Ki KOR/Ki MOR” value (KOR) was 86.
